Values quoted from earlier work as cited in patent US11912734B2, “Solid-phase synthesis of oligonucleotides containing N6-(2-deoxy-alpha,beta-derythropentofuranosyl)-2,6-diamino-4-hydroxy-5-formamidopyrimidine (Fapy⋅dG)” (The Johns Hopkins University, priority 2020, dated 2024).

What was measured:
hOGG1 = hOGG1 (Homo sapiens, UniProt O15527); conditions: dC versus dA opposite the lesion
MutY = MutY (Escherichia coli, UniProt P17802); conditions: relative to 8-OxodGuo:dA duplex; more rapid than from a dG:dA mispair
Sequence of MutY (P17802 whole entry): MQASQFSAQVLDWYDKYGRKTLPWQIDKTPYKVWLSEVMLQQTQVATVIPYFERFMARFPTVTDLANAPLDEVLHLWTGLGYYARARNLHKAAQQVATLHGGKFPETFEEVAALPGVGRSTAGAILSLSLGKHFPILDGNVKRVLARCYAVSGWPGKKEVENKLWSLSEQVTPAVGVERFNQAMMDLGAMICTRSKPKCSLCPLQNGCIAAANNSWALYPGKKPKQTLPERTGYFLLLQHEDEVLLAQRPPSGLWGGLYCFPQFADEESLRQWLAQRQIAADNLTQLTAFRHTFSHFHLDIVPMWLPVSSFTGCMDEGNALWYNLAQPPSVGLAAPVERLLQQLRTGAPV

Fpg = Fpg (Escherichia coli, UniProt P05523); conditions: Fapy·dG:dC versus Fapy·dG:dA
Sequence of Fpg (P05523 whole entry): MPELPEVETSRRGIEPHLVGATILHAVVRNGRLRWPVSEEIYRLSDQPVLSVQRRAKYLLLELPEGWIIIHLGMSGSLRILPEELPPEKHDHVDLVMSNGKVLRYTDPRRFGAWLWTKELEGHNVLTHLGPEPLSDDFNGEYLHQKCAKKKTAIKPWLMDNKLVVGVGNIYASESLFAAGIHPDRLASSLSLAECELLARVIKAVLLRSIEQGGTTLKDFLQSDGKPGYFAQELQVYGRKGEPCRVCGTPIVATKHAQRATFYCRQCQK

Sequence of hOGG1 (O15527 whole entry): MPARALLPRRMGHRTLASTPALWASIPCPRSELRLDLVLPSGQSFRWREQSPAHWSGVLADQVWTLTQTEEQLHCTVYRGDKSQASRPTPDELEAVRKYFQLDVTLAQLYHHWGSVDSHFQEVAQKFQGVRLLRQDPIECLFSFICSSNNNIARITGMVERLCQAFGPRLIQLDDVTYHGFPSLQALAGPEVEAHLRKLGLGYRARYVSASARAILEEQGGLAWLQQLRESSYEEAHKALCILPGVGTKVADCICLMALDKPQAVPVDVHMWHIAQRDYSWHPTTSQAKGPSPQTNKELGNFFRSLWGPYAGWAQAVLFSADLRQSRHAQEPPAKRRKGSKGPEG

In the case of `Nc1nc(O)c(NC=O)c(NC2C[C@H](O)[C@@H](CO)O2)n1` (stereo partly drawn) [Fapy·dG, N6-(2-Deoxy-α,β-D-erythropentofuranosyl)-2,6-diamino-4-hydroxy-5-formamidopyrimidine], the “discrimination against a Fapy·dG:dA base pair” value (hOGG1) is given as “more than 40 fold”, the “incision of mismatched dA opposite Fapy·dG, more slowly than from a duplex containing 8-OxodGuo:dA” value (MutY) is given as 4 fold and the “efficiency of glycosidic bond hydrolysis of the lesion in a Fapy·dG:dC base pair relative to opposite dA” value (Fpg) is given as roughly 20 times.
